In paper PMC11356900, “Synthesis, Structural Properties and Biological Activities of Novel Hydrazones of 2-, 3-, 4-Iodobenzoic Acid” (Molecules, 2024):
Values after ≈ are worked out from the molar mass of the structure shown.

Columns and labels:
[1] = test system: Staphylococcus aureus ATCC 43300; assay: Broth microdilution MIC/MBC; settings: ATCC43300 / MRSA
[2] = test system: Bacillus subtilis ATCC 6633; assay: Broth microdilution MIC/MBC; settings: ATCC6633
[3] = test system: Staphylococcus epidermidis ATCC 12228; assay: Broth microdilution MIC/MBC; settings: ATCC12228
[4] = test system: Bordetella bronchiseptica ATCC 4617; assay: Broth microdilution MIC/MBC; settings: ATCC4617
[5] = test system: Pseudomonas aeruginosa ATCC 9027; assay: Broth microdilution MIC/MBC; settings: ATCC9027
L929 cell line = assay: MTT cytotoxicity assay; type: cell-based, mouse; settings: for cytotoxicity: L929, 24 h culture
Procedure: Among all the newly synthesized compounds, four compounds designated as: 14, 20, 21 and 27 were selected for further testing of their cytotoxic properties at the doses of 10, 25, 50, 75 and 100 µM. The cytotoxic properties of the above compounds were tested on the cancer cell lines, i.e., A549 (ECACC 86012804) (non-small-cell lung cancer), T47D (ECACC 85102201) (breast cancer), HeLa (ATCC® CCL-2™) (cervical cancer) and normal line L929 (NCTC clone 929, ATCC® CCL-1™) (mouse fibroblasts) using the MTT test for 24- and 48 h cultures.
A549 (ECACC 86012804) (non-small-cell lung cancer) and T47D (ECACC 85102201) (breast cancer) were obtained from ECACC and propagated in Dulbecco’s Minimal Essential Medium, supplemented with 2 mM of glutamine, antibiotics ([…] streptomycin, 1% of 100 U/L penicillin) and 10% Fetal Bovine Serum. HeLa (ATCC® CCL-2™) (cervical cancer) and L929 (NCTC clone 929, ATCC® CCL-1™) (mouse fibroblasts) cell lines were obtained from ATCC and propagated in the Eagle Minimal Essential Medium supplemented with antibiotics ([…] streptomycin, 1% of 100 U/L penicillin) and with 10% and 5% FBS, respectively. The cell line was routinely grown in 75 cm^2 tissue culture flasks and kept in an incubator (humidified atmosphere of 5% CO2 at 37 °C). All examined cell lines were tested against mycoplasma contamination with microbiological assays.
The cell viability of tested compounds (14, 20, 21 and 27) was assessed by the MTT assay. In brief, the exponentially growing cells were plated in 100 μL/well in 96-well plates. After 24 h culturing, the cells were treated with different concentrations of compounds (range 10–100 μM). After 24 and 48 h of incubation, 10 μL of 5 mg/mL MTT was added to each well and the plates were incubated at 37 °C for additional 4 h. The medium was subsequently removed, the purple-colored precipitates of formazan were dissolved in 100 μL of DMSO. The color absorbance was recorded at 570 nm using a BioTek model EPOCH ELISA plate reader. All experiments were performed in triplicate. The absorbance values were in the range of linearity of the Lambert–Beer law.

| SMILES | MBC [1] [µg/mL] | MIC [1] [µg/mL] | MBC [2] [µg/mL] | MIC [2] [µg/mL] | MBC [3] [µg/mL] | MIC [3] [µg/mL] | cell proliferation (L929 cell line; L929, 24h, 10 µM, Repeat No 1) [%] | cell proliferation (L929 cell line; L929, 24h, 10 µM, Repeat No 2) [%] | cell proliferation (L929 cell line; L929, 24h, 25 µM, Repeat No 1) [%] | cell proliferation (L929 cell line; L929, 24h, 25 µM, Repeat No 2) [%] | cell proliferation (L929 cell line; L929, 24h, 50 µM, Repeat No 1) [%] | cell proliferation (L929 cell line; L929, 24h, 50 µM, Repeat No 2) [%] | cell proliferation (L929 cell line; L929, 24h, 75 µM, Repeat No 1) [%] | cell proliferation (L929 cell line; L929, 24h, 75 µM, Repeat No 2) [%] | cell proliferation (L929 cell line; L929, 24h, 100 µM, Repeat No 1) [%] | cell proliferation (L929 cell line; L929, 24h, 100 µM, Repeat No 2) [%] | cytotoxicity (L929 cell line; tested doses 10–100 µM) | cell proliferation (L929 cell line; L929, 48h, 10 µM, Repeat No 1) [%] | cell proliferation (L929 cell line; L929, 48h, 10 µM, Repeat No 2) [%] | cell proliferation (L929 cell line; L929, 48h, 25 µM, Repeat No 1) [%] | other results |
| --- | --- | --- | --- | --- | --- | --- | --- | --- | --- | --- | --- | --- | --- | --- | --- | --- | --- | --- | --- | --- | --- |
| O=C(N/N=C/c1cc(Cl)cc(I)c1O)c1ccc(I)cc1 [Compound 27, N-[(5-chloro-2-hydroxy-3-iodophenyl)methylidene]-4-iodobenzohydrazide] | 250 (≈ 475 µM) | 62.5 (≈ 119 µM) | 500 (≈ 950 µM) | 125 (≈ 237 µM) | 31.2 (≈ 59.4 µM) | 31.2 (≈ 59.4 µM) | 101 | 89 | 96 | 92 | 95 | 81 | 103 | 107 | 92 | 91 | approximately 20% | 92 | 89 | 95 | MBC [4]: 1000 µg/mL (≈ 1900 µM); MBC/MIC [4]: 2; MIC [4]: 500 µg/mL (≈ 950 µM); MBC [5]: > 1000 µg/mL; MBC/MIC [5]: > 1; MIC [5]: 1000 µg/mL (≈ 1900 µM); cell proliferation (L929 cell line; L929, 48h, 25 µM, Repeat No 2): 99%; cell proliferation (L929 cell line; L929, 48h, 50 µM, Repeat No 1): 92%; cell proliferation (L929 cell line; L929, 48h, 50 µM, Repeat No 2): 91%; cell proliferation (L929 cell line; L929, 48h, 75 µM, Repeat No 1): 99%; cell proliferation (L929 cell line; L929, 48h, 75 µM, Repeat No 2): 92%; cell proliferation (L929 cell line; L929, 48h, 100 µM, Repeat No 1): 87%; cell proliferation (L929 cell line; L929, 48h, 100 µM, Repeat No 2): 92% |
| O=C(N/N=C/c1cc(Cl)cc(I)c1O)c1cccc(I)c1 [Compound 20, N-[(5-chloro-2-hydroxy-3-iodophenyl)methylidene]-3-iodobenzohydrazide] | 7.81 (≈ 14.8 µM) | 3.91 (≈ 7.43 µM) | 31.2 (≈ 59.4 µM) | 7.81 (≈ 14.8 µM) | 7.81 (≈ 14.8 µM) | 1.95 (≈ 3.7 µM) | 99 | 104 | 89 | 95 | 87 | 112 | 103 | 96 | 86 | 94 | approximately 20% | 91 | 102 | 88 | MBC [4]: > 1000 µg/mL; MBC/MIC [4]: > 2; MIC [4]: 500 µg/mL (≈ 950 µM); MBC [5]: > 1000 µg/mL; MBC/MIC [5]: > 2; MIC [5]: 500 µg/mL (≈ 950 µM); cell proliferation (L929 cell line; L929, 48h, 25 µM, Repeat No 2): 93%; cell proliferation (L929 cell line; L929, 48h, 50 µM, Repeat No 1): 94%; cell proliferation (L929 cell line; L929, 48h, 50 µM, Repeat No 2): 99%; cell proliferation (L929 cell line; L929, 48h, 75 µM, Repeat No 1): 94%; cell proliferation (L929 cell line; L929, 48h, 75 µM, Repeat No 2): 99%; cell proliferation (L929 cell line; L929, 48h, 100 µM, Repeat No 1): 87%; cell proliferation (L929 cell line; L929, 48h, 100 µM, Repeat No 2): 84% |
| O=C(N/N=C/c1cc(Br)cc(Br)c1O)c1cccc(I)c1 [Compound 21, N-[(3,5-dibromo-2-hydroxyphenyl)methylidene]-3-iodobenzohydrazide] | 62.5 (≈ 119 µM) | 15.6 (≈ 29.8 µM) | 31.2 (≈ 59.6 µM) | 7.81 (≈ 14.9 µM) | 31.2 (≈ 59.6 µM) | 7.81 (≈ 14.9 µM) | 96 | 102 | 101 | 97 | 100 | 106 | 118 | 109 | 89 | 96 | approximately 20% | 94 | 98 | 89 | MIC [4]: > 1000 µg/mL; MIC [5]: > 1000 µg/mL; cell proliferation (L929 cell line; L929, 48h, 25 µM, Repeat No 2): 97%; cell proliferation (L929 cell line; L929, 48h, 50 µM, Repeat No 1): 89%; cell proliferation (L929 cell line; L929, 48h, 50 µM, Repeat No 2): 88%; cell proliferation (L929 cell line; L929, 48h, 75 µM, Repeat No 1): 104%; cell proliferation (L929 cell line; L929, 48h, 75 µM, Repeat No 2): 96%; cell proliferation (L929 cell line; L929, 48h, 100 µM, Repeat No 1): 89%; cell proliferation (L929 cell line; L929, 48h, 100 µM, Repeat No 2): 84% |
| O=C(N/N=C/c1cc(I)cc(I)c1O)c1ccccc1I [Compound 14, N-[(3,5-diiodo-2-hydroxyphenyl)methylidene]-2-iodobenzohydrazide] | 1000 (≈ 1620 µM) | 250 (≈ 405 µM) | 500 (≈ 809 µM) | 500 (≈ 809 µM) | 250 (≈ 405 µM) | 125 (≈ 202 µM) | 94 | 94 | 100 | 89 | 85 | 73 | 77 | 69 | 91 | 97 | approximately 20% | 75 | 99 | 106 | cytotoxicity (L929 cell line; dose of 75 µM): around 40%; cell proliferation (L929 cell line; L929, 48h, 25 µM, Repeat No 2): 99%; cell proliferation (L929 cell line; L929, 48h, 50 µM, Repeat No 1): 83%; cell proliferation (L929 cell line; L929, 48h, 50 µM, Repeat No 2): 98%; cell proliferation (L929 cell line; L929, 48h, 75 µM, Repeat No 1): 83%; cell proliferation (L929 cell line; L929, 48h, 75 µM, Repeat No 2): 89%; cell proliferation (L929 cell line; L929, 48h, 100 µM, Repeat No 1): 94%; cell proliferation (L929 cell line; L929, 48h, 100 µM, Repeat No 2): 101% |
